From ChEMBL document CHEMBL4480423, “Mindapyrroles A-C, Pyoluteorin Analogues from a Shipworm-Associated Bacterium” (J Nat Prod, 2019)
Converted amounts (≈) assume the structure as drawn.

Columns and labels:
[1] = test system: Staphylococcus epidermidis; experiment: Antibacterial activity against Staphylococcus epidermidis ATCC 35984 after 24 hrs by resazurin dye based fluorescence assay; type: functional; settings: ATCC 35984, 24 h
[2] = test system: Pseudomonas aeruginosa; experiment: Antibacterial activity against Pseudomonas aeruginosa ATCC 15442 after 24 hrs by resazurin dye based fluorescence assay; type: functional; settings: ATCC 15442, 24 h
[3] = test system: MDCK; experiment: Cytotoxicity against MDCK cells assessed as reduction in cell viability after 72 hrs by MTT assay; type: cell-based; settings: Canis lupus familiaris
[4] = test system: Staphylococcus aureus; experiment: Antibacterial activity against Staphylococcus aureus ATCC 6538 after 24 hrs by resazurin dye based fluorescence assay; type: functional; settings: ATCC 6538, 24 h
[5] = test system: Bacillus subtilis; experiment: Antibacterial activity against Bacillus subtilis ATCC 6051 after 24 hrs by resazurin dye based fluorescence assay; type: functional; settings: ATCC 6051, 24 h
[6] = test system: Enterococcus faecium; experiment: Antibacterial activity against Enterococcus faecium ATCC […] after 24 hrs by resazurin dye based fluorescence assay; type: functional
[7] = test system: Staphylococcus aureus; experiment: Antibacterial activity against methicillin-resistant Staphylococcus aureus ATCC 43300 after 24 hrs by resazurin dye based fluorescence assay; type: functional; settings: ATCC 43300, 24 h

Structure (SMILES)	MIC [1] [µg/mL]	MIC [2] [µg/mL]	IC50 [3] [µM]	MIC [4] [µg/mL]	MIC [5] [µg/mL]	MIC [6] [µg/mL]	MIC [7] [µg/mL]
O=C(c1cc(Cl)c(Cl)[nH]1)c1c(O)ccc(Cc2ccc(O)c(C(=O)c3cc(Cl)c(Cl)[nH]3)c2O)c1O	32 (≈ 57.5 µM)	> 32	44	32 (≈ 57.5 µM)	32 (≈ 57.5 µM)	32 (≈ 57.5 µM)	> 32
O=C(c1cc(Cl)c(Cl)[nH]1)c1c(O)ccc(Cc2cc(C(c3csc(-c4ccccc4O)n3)c3ccc(O)c(C(=O)c4cc(Cl)c(Cl)[nH]4)c3O)c(O)c(C(=O)c3cc(Cl)c(Cl)[nH]3)c2O)c1O (stereo not given)	2 (≈ 1.97 µM)	> 32	28	4 (≈ 3.94 µM)	8 (≈ 7.88 µM)	> 32	8 (≈ 7.88 µM)
O=C(c1cc(Cl)c(Cl)[nH]1)c1c(O)ccc(C(c2csc(-c3ccccc3O)n2)c2ccc(O)c(C(=O)c3cc(Cl)c(Cl)[nH]3)c2O)c1O	2 (≈ 2.73 µM)	8 (≈ 10.9 µM)	92	4 (≈ 5.47 µM)	4 (≈ 5.47 µM)	8 (≈ 10.9 µM)	4 (≈ 5.47 µM)
O=C(N[C@H](CO)[C@H](O)c1ccc([N+](=O)[O-])cc1)C(Cl)Cl [CHLORAMPHENICOL]						8 (≈ 24.8 µM)	
CCn1cc(C(=O)O)c(=O)c2ccc(C)nc21 [NALIDIXIC ACID]		4 (≈ 17.2 µM)					
Cc1onc(-c2ccccc2)c1C(=O)N[C@@H]1C(=O)N2[C@@H]1SC(C)(C)[C@@H]2C(=O)O [OXACILLIN]	2 (≈ 4.98 µM)			0.13 (≈ 0.324 µM)	1 (≈ 2.49 µM)	> 32	8 (≈ 19.9 µM)
O=C(c1cc(Cl)c(Cl)[nH]1)c1c(O)cccc1O [PYOLUTEORIN]	4 (≈ 14.7 µM)	16 (≈ 58.8 µM)	4.8	4 (≈ 14.7 µM)	8 (≈ 29.4 µM)	8 (≈ 29.4 µM)	8 (≈ 29.4 µM)
